Reference: patent US20210069295A1, “GALECTINS CONTROL MTOR IN RESPONSE TO ENDOMEMBRANE DAMAGE AND PROVIDE A MECHANISM AND TARGET FOR THE TREATMENT OF AUTOPHAGY-RELATED DISEASES” (STC. UNM, priority 2017, published 2021)
Peptide text beside a SMILES is read from it.

Assays:
mTOR = mTOR activity by immunoblotting of S6K1 (T389) and ULK1 (S757) phosphorylation in HEK293T cells; assay type: cell-based
Protocol: (A) Dose-response analysis of mTOR activity in HEK293T cells treated with glycyl-L-phenylalanine 2-naphththylamide (GPN) in full medium for 1 h. mTOR activity was monitored by inununoblotting analysis of S6K1 (T389) and ULK1 (S757) phosphorylation (phosphorylated S6K (T389) and ULK1 (S757) relative to total S6K and ULK1, respectively). (B) Analysis of mTOR activity (as in A) after GPN washout. HEK293T cells were treated with 100 μM GPN for 1 h followed by 1 h washout in full medium. Data, means±SEM (n=3), **p<0.01, ANOVA. (C) Analysis of mTOR activity (as in A) in HEK293T cells treated with increasing doses of silica in full medium for 1 h. (D) HEK293T cells were treated with lysosomal damaging agents (LLOMe, Leu-Leu-OMe) for 1 h in full medium and status of acidified organelles assessed by quantifying LysoTracker Red DND-99 puncta using automated high-content imaging and analysis (HC). None-treated cells were as control (Ctrl). White masks, algorithm defined cell boundaries (primary objects); yellow masks, computer-identified LysoTracker Red puncta (target objects). Data, means±SEM, n≥3 independent experiments (500 primary objects counted per well; ≥5 wells/sample per each experiment), **p<0.01, ANOVA. (E) Analysis of mTOR activity in primary human macrophages treated with GPN. Human peripheral blood monocyte derived macrophages were treated with 100 μM GPN in full medium or starved in EBSS for 1 h, and mTOR activity measured as in A. None-treated cells were as control (Ctrl). (F) Quantification by HC of overlaps between mTOR and LAMP2 (representative images shown in FIG. S1D) in HeLa cells treated with lysosomal damaging agents for 1 h in full medium. Data, means±SEM, n≥3 independent experiments (500 primary objects counted per well; ≥5 wells/sample per each experiment) **p<0.01, ANOVA. (G) Immunofluorescence confocal microscopy visualization of mTOR localization relative to LAMP2-positive lysosomes. […] (H) Analysis of TFEB nuclear translocation in HeLa cells treated with 100 μM GPN in full medium for 1 h, and the nuclear translocation of TFEB was measured by HC (Nuclei, Hoechst 33342, blue pseudocolor; TFEB red fluorescence, Alexa-568). […] White masks, computer algorithm-defined cell boundaries (primary objects); pink masks, computer-identified nuclear TFEB based on the average intensity of Alexa-568 fluorescence. Data, means±SEM, n≥3 independent experiments (500 primary objects counted per well; ≥5 wells/sample per each experiment), **p<0.01, ANOVA. (I) HeLa cells were treated as indicated in full medium for 1 h, and LC3 puncta were quantified by HC. […] Data, means±SEM, n≥3 independent experiments (500 primary objects counted per well; ≥5 wells/sample per each experiment), **p<0.01, ANOVA. […]

Gal8 = assay: Immunoprecipitation of endogenous Gal8 complexes in THP-1 cells; assay type: cell-based; settings: 100 μM GPN 1 h
Protocol: (A) Analysis of the puncta formation of galectins in response to GPN. HeLa cells overexpressing YFP-fused with the indicated galectins were treated with 100 μM GPN or without (Ctrl) in full medium for 1 h and galectin puncta were quantified by HC. […] White masks, algorithm defined cell boundaries (primary objects); green masks, computer-identified galectins puncta (target objects). Data, means±SEM, n≥3 independent experiments (500 primary objects counted per well; ≥5 wells/sample per each experiment); *p<0.05, **p<0.01, † p≥0.05, ANOVA. (B) Immunoprecipitation analysis of the interactions between galectins and mTOR or RagA GTPase. HEK293T cells overexpressing FLAG-tagged galectins were subjected to anti-FLAG immunoprecipitation followed by immunoblotting for endogenous mTOR or RagA. (C) Immunoprecipitation analysis of interactions between Gal8 and mTOR protein complexes in response to GPN treatment. THP-1 cells not treated or treated with 100 μM GPN in full medium for 1 h were subjected to immunoprecipitation with anti-Gal8 antibody, followed by immunoblotting for endogenous RagA, p14, mTOR or Raptor. (D) Analysis of the proximity of Gal8 to mTOR and other proteins in mTOR complexes in response to GPN. Biotinylated proteins from HEK293T cell expressing APEX2-vector or APEX2-Gal8, after GPN and biotin phenol (BP) treatment were affinity-enriched by binding to streptavidin-beads, and samples were analyzed by immunoblotting analysis for endogenous RagA, p14, mTOR or Raptor. Data, means±SEM, (n=3), **p<0.01, ANOVA. (E) Immunoprecipitation analysis of the interactions between Gal8 and RagA GTPase and its mutants. Lysates of HEK293T cells overexpressing FLAG-Gal8 and HA-tagged RagA proteins (RagAWT, RagAT21L or RagAQ66L) were subjected to anti-FLAG immunoprecipitation, followed by immunoblotting for HA-tagged RagA proteins. (F) Immunoprecipitation analysis of the interactions between Gal8 and RagC GTPase and its mutants. […]

Structure (SMILES): NCC(=O)N[C@@H](Cc1ccccc1)C(=O)Nc1ccc2ccccc2c1 [GPN, glycyl-L-phenylalanine 2-naphththylamide] (HELM PEPTIDE1{G.F.[c1ccc2cc(N[*:1])ccc2c1]}$$$$V2.0)
- mTOR activity after washout (mTOR; 100 μM GPN for 1 h followed by 1 h washout in full medium): reversed
- mTOR activity (phosphorylation of its substrates S6K1 and ULK1) (mTOR; HEK293T cells, full medium, 1 h): diminished mTOR activity
- mTOR activity (S6K1 phosphorylation) in cells expressing constitutively active RagBQ99L (mTOR; HEK293T stably expressing RagBQ99L, 100 μM GPN 1 h): not the case
- association between Gal8 and LAMTOR2/p14 (Gal8): increased association
- association between Gal8 and RagA (Gal8): increased
- levels of Raptor and mTOR in complexes with Gal8 (Gal8): reduced levels
